Data as given in patent US20130123358A1, “Metabolic Benefits to Butyrate as a Chronic Diet Supplement” (priority 2009, published 2013).

Key:
L6 muscle cells = assay: Immunoblot of L6 myotubes; format: cell-based; conditions: 500 μM sodium butyrate, 4 hours
Protocol: To further test the effect of butyrate on muscle, AMPK and PGC-1α were assayed in L6 muscle cells treated with butyrate. Differentiated L6 myotubes were starved in 0.25% BSA DMEM for overnight. The cells were treated with 500 μM of sodium butyrate for 4 hours and analyzed in an immunoblot. […] In the same culture, the PGC-1α protein was increased (FIG. 6A).

[1] = tested on: C57BL/6J mice on high fat diet; assay: Body temperature in cold response (4° C.); format: in vivo, mouse; conditions: butyrate 5% w/w in HFD 10 weeks, ambient 4° C.
Protocol: Body temperature was measured in the cold room with ambient temperature at 4° C. Animals were sedated and restrained for less than 30 sec in the measurement. A Thermalert model TH-8 temperature monitor (Physitemp, Clifton, N.J.) was used with probe placed in the rectum at 2.5 cm in depth.
The association of increased food intake with elevated energy expenditure implicated a role of brown adipose tissue, which is responsible for adaptive thermogenesis in response to diet or cold (20-22). Diet-induced thermogenesis reduces obesity in both humans and animals (23). […] To determine the thermogenic function, a cold-response experiment was conducted by exposing the mice to a cold environment with an ambient temperature of 4° C. for 90 min. The mice had been on HFD for 10 weeks. The body core temperature was monitored three times during exposure by measuring the rectal temperature. In the control mice, the body temperature decreased with time and was 34.5° C. after 90 min in the cold (FIG. 4A). In the butyrate-treated mice, the body temperature dropped to 35° C. transiently at 30 minutes, and then returned to 36° C. for the rest of time.

[2] = tested on: brown adipose tissue PGC-1α and UCP-1; assay: Brown adipose tissue morphology, qRT-PCR and immunoblot; format: in vivo, mouse
Protocol: Total RNA was extracted from frozen tissues (kept at −80° C.) using Tri-Reagent (T9424, Sigma) as described elsewhere (16). Taqman RT-PCR primer and probe were used to determine mRNA for PGC-1α (Mm00447183_m1), UCP-1 (Mm00494069_m1), PPARδ (Mm01305434_m1) and CPT1b (Mm00487200_m1). The reagents were purchased from Applied Biosystems (Foster City, Calif.). Mouse ribosome 18S rRNA_s1 (without intron-exon junction) was used as an internal control. Reaction was conducted with 7900 HT Fast real time PCR System (Applied Biosystems, Foster City, Calif.).
Fresh fat and muscles were collected and frozen in liquid nitrogen. The whole cell lysate protein was extract in lysis buffer with sonication and analyzed in western blot as described elsewhere (16). Antibodies were used in study of myoglobin (sc-25607, Santa Cruz), PGC-1 (sc-13068, Santa Cruz), Tubulin (ab7291, Abcam), myosin (M8421, Sigma), pAMPK (Thr 172, #2531, Cell signaling) and p-p38 (sc-7975, Santa Cruz). To detect multiple signals from one membrane, the membrane was stripped with a stripping buffer. Intensity of the immunoblot signal was quantified using a computer program, ImageJ 1.37v (NIH). The mean values of results from three experiments (6 mice each group) were presented. The antibodies to PGC-1α and UCP-1 were from Dr. Thomas Gettys at Pennington Biomedical Research Center, Baton Rouge, La.
Fresh tissues (muscle, fat and liver) were collected at 16 weeks of age after 12 weeks butyrate feeding and fixed in 10% neutral buffered formalin solution (HT50-1-2, Sigma). The tissue slides were obtained through serial cross-section cutting at 8 um thickness and processed with a standard procedure. Briefly, the slides were deparaffinated and stained in haematoxylin (#101542, Surgipath) for 15 min, and rinsed in water until sections are blue. Then, slides were stained in Eosin (E4009, Sigma), dehydrated quickly in 95% ethanol and treated with […]. The sections were mounted and photographed with Nikon microscope (Eclipse TS100, Japan).
In addition, the morphology and gene expression were examined in the brown fat of mice. Hematoxylin and eosin staining (H&E staining) was conducted on brown adipose tissues collected at 13 weeks on HFD. […] Compared to the control mice, the size of brown adipocytes was much smaller in the butyrate group (FIG. 4B), indicating a higher thermogenic activity that leads to the reduction in fat accumulation. Mitochondrial function is regulated by gene expression (24). To understand the molecular basis of the increased thermogenesis, the expression of two thermogenesis-related genes, such as PGC-1α and UCP-1, were examined in BAT. mRNA of both genes was increased in the butyrate-treated mice. Brown adipose tissues were collected at 13 weeks on HFD, and gene expression for PGC-1α and UCP-1 was examined by qRT-PCR. In addition, the corresponding proteins were assayed using a whole cell lysate (100 μg) resolved in SDS-PAGE and blotted with PGC-1α and UCP-1 antibodies. […] Data in FIGS. 4A-4D are presented as means±SE (n=9 mice). * P<0.05. This increase in gene expression provides a molecular basis for the enhanced thermogenesis by the butyrate treatment.

islet cells = conditions: isolated rat islet cells; cited from earlier work
ruminant mammals = conditions: intravenous use, including in the form of tributyrin; cited from earlier work
[3] = butyrate 5% w/w in HFD 13 weeks, immunoblot
[4] = butyrate 5% w/w in HFD 13 weeks, qRT-PCR

With `CCCC(=O)[O-].[Na+]` [sodium butyrate] the AMPK phosphorylation (L6 muscle cells) was “increased”, the PGC-1α protein (L6 muscle cells) was “increased” and the p38 phosphorylation (L6 muscle cells) was “increased”. The “body temperature (rectal) at 30 minutes in the cold” value [1] was 35 °C, the “body temperature (rectal) for the rest of time in the cold” value ([1]; up to 90 min) was 36 °C and the “size of brown adipocytes” value ([2]; butyrate 5% w/w in HFD 13 weeks vs control, H&E) was “much smaller”. For the same compound, the “PGC-1α protein in brown fat” value [2, 3] was “also increased”, the “UCP-1 protein in brown fat” value [2, 3] was “also increased” and the “PGC-1α mRNA in BAT” value [2, 4] was “increased”. For the same compound, the “UCP-1 mRNA in BAT” value [2, 4] was “increased”, the “cell viability (islet cells)” value (islet cells) was “decrease” and the “insulin release in the presence of glucose (islet cells)” value (islet cells) was “decrease”. For the same compound, the “serum glucose and insulin” value (ruminant mammals) was “increase”.
